According to US9192604B2, “Method of administration and treatment” (GlaxoSmithKline Intellectual Property (No. 2) Limited, priority 2011, dated 2015):
Like-named read-outs stand apart in the source and are kept apart here.

Tests used:
[1] = test system: merlin negative cell lines; assay: Anchorage-independent growth-death assay, merlin negative cell line panel; format: cell-based; conditions: Homo sapiens, ALL5; second anchorage-independent assay; all 5 merlin negative cell lines; read-out: gIC50 values
Procedure: (§1) Five human mesothelioma cell lines and two additional human lung cancer cell lines available from the ATCC were used in these studies. Cells were grown in RPMI1640 media containing 10% FBS, 1% L-glutamine, 1% sodium pyruvate under standard cell culture conditions. The mesothelioma cell lines: NCI-H2052, MSTO-211H, NCI-H28, NCI-H226, NCI-H2452, and additional lung lines: A549 and SW-1573. An additional three mesothelioma cell lines, Mero-41, Mero-82, and Mero-14, were grown under identical conditions.
The cellular response to Compound A was evaluated in an anchorage-independent cell growth assay that quantified the extent of cell growth inhibition and the net change in cell population. The assay was performed in black, clear bottom, untreated 384-well plates (Greiner #781096). […]
(§2) On day 6, the assay was stopped by developing the plates, placing a black sticker on bottom of each plate to block light, adding 25 μL of CTG, and incubating the plates for 20 minutes at room temperature. The plates were scanned using a luminescence protocol on the EnVision (Perkin-Elmer).
(§3) Results were expressed as a percent of the T0 value and plotted against the compound concentration. […] The cellular response was determined by fitting the concentration response curves using a 4-parameter curve fit equation and determining the concentration that inhibited growth by 50% (gIC50). […]

[2] = test system: MSTO-211H cells; assay: Anchorage-independent growth-death assay (methylcellulose, CellTiter-Glo, 6 days); format: cell-based, human; conditions: for IC50: Homo sapiens
Procedure: as §1
(§4) The cellular response to Compound A was evaluated in an anchorage-independent cell growth assay that quantified the extent of cell growth inhibition and the net change in cell population. The assay was performed in black, clear bottom, untreated 384-well plates (Greiner #781096). It is important to use either non-tissue culture treated or Low Attachment plates to prevent cells from adhering to the plate during the assay. In brief, the assay was performed as described below.
(§5) A 1% (weight/volume) stock of methylcellulose solution was prepared by dissolving 5 grams of sterilized methylcellulose (Sigma #M0512) in 495 mL of cell culture medium. Here, RPMI1640 media containing 10% FBS, 1% L-glutamine, 1% sodium pyruvate was added to the cooled methylcellulose that had been placed in a glass container and autoclaved to sterilize. Media can be substituted if the cells require different cell culture medium for growth. The dissolution often took a day with vigorous stirring at 4° C. maintaining sterile conditions.
(§6) Cells were plated into a 384 well plate with assay conditions of 0.65% methylcellulose (final concentration) and 1000 cells per well in a final volume of 48 μL. This was achieved by diluting cells harvested from culture and re-suspended in growth medium (dilute to 2.0833×10^4 cells/mL) with the 1% methylcellulose. The cells were mixed by inversion to distribute evenly, bubbles were dispersed and 48 μL was placed into the well with a positive displacement pipette. The plates were placed in a cell culture incubator containing 5% CO2 at 37° C.
(§7) Serial dilution of compound in DMSO was done in a 384 well plate starting with 20 μL of stock compound solution in the first column and 10 μL of DMSO in the other wells. Ten μL from the compound well was transferred into the DMSO containing well, mixed, and the serial dilution was continued with 10 μL transfers across the plate. Then, 4 μL of this DMSO diluted compound was added into wells of a new 384 well plate containing 105 μL of appropriate growth medium. This ‘compound plate’ was used to dose the assay plates containing cells in methylcellulose.
(§8) To initiate the assay, two μL from each well of the ‘compound plate’ were added to individual wells of the ‘assay plates,’ each well containing the 48 μL of cells in methylcellulose. These assay plates were placed in the cell culture incubator for 6 days. One plate was selected at random and developed with Cell TiterGlo (CTG) at the time of compound addition to represent the time equal zero (T0) plate, i.e. to represent the number of cells at the time of compound addition.
as §2
as §3, with “(gIC50). The gIC50 value is the midpoint of the growth window (between T0 and growth of DMSO controls).” for “(gIC50).”

[3] = test system: NCI-H2052 cells; assay: as above; format: cell-based, human; conditions: for IC50: Homo sapiens, read-out: Growth Inhibition gIC50
Procedure: as §1, §4, §5, §6, §7, §8, §2
as §3, with “(gIC50). The gIC50 value is the midpoint of the growth window (between T0 and growth of DMSO controls).” for “(gIC50).”

[4] = test system: Mero-14 cells; assay: as above; format: cell-based, human; conditions: second anchorage-independent assay, Mero-14, merlin negative
Procedure: as §1, §4, §5, §6, §7, §8, §2
as §3, with “(gIC50). The gIC50 value is the midpoint of the growth window (between T0 and growth of DMSO controls).” for “(gIC50).”

[5] = test system: Mero-41 cells; assay: as above; format: cell-based, human; conditions: second anchorage-independent assay, Mero-41, merlin negative
Procedure: as §1, §4, §5, §6, §7, §8, §2
as §3, with “(gIC50). The gIC50 value is the midpoint of the growth window (between T0 and growth of DMSO controls).” for “(gIC50).”

[6] = test system: NCI-H226 cells; assay: as above; format: cell-based, human; conditions: second anchorage-independent assay, NCI-H226, merlin negative
Procedure: as §1, §4, §5, §6, §7, §8, §2
as §3, with “(gIC50). The gIC50 value is the midpoint of the growth window (between T0 and growth of DMSO controls).” for “(gIC50).”

[7] = test system: Mero-82 cells; assay: as above; format: cell-based, human; conditions: second anchorage-independent assay, Mero-82, merlin negative
Procedure: as §1, §4, §5, §6, §7, §8, §2
as §3, with “(gIC50). The gIC50 value is the midpoint of the growth window (between T0 and growth of DMSO controls).” for “(gIC50).”

[8] = test system: patients with mesothelioma; assay: Phase I clinical study, anti-tumor activity (RECIST 1.1, Kaplan-Meier PFS) by merlin status; format: in vivo, human
Excerpt: A multi-part, Phase I study was designed to determine the maximum tolerated dose (MTD), safety, tolerability, pharmacokinetics (PK), pharmacodynamics (PD), and anti-tumor activity of Compound A in patients with advanced solid tumors. Part 1 of the study identified the MTD using a dose escalation procedure, and is described herein. Parts 2-3 are ongoing. Part 2 further explores the safety and tolerability of Compound A at or below the MTD, and Part 3 evaluates the pharmacodynamics of Compound A at doses at and below the MTD. Part 4 was not opened for patient accrual at the time of this summary and will explore the safety, tolerability, pharmacokinetics and clinical activity of Compound A in patients with recurrent glioblastoma multiforme. Part 5 was not opened for patient accrual at the time of this summary and will explore the pharmacokinetics of Compound A over several weeks of administration. Patients with mesothelioma were eligible to participate, e.g, in Part 1, of the study. Patients with mesothelioma were eligible to participate in Parts 1-3 of the study at the time the data below were collected.
Patients 18 years old with advanced solid tumors with histologically or cytologically confirmed diagnosis of a solid tumor malignancy that was not responsive to accepted standard therapies or for which there is no standard or curative therapy were eligible. All patients provided signed informed consent. […] In Parts 2-3 of the study, patients with tumors reported in the literature to overexpress FAK that are not responsive to accepted standard therapies or for which there were no standard or curative therapies were included. Subjects in Part 3 were also required to have solid tumors amenable to biopsy.
Patients with an active gastrointestinal disease known to interfere with the pharmacokinetics of drugs or prior resection of the small intestine were ineligible. Other exclusion criteria included unresolved toxicity>Grade 1 from previous anticancer therapy except alopecia, QTcF interval>450 msecs in males (470 in females) or congenital long QT syndrome, history of acute coronary syndromes, Class II-IV heart failure as defined by the New York Heart Association, symptomatic or untreated brain metastases, primary malignancy of the central nervous system (in Parts 1-3), nursing females, consumption of dietary substances or prohibited medications as defined in the protocol, or any serious and/or unstable pre-existing medical, psychiatric, or other condition that could interfere with subject safety or obtaining informed consent.
Measurements to evaluate safety included weight, heart rate, blood pressure, temperature, clinical laboratory tests, 12-lead ECG, and neurologic and physical evaluation. Adverse events were assessed throughout the study using the CTCAE v4.0, Common Terminology Criteria for Adverse Events (CTCAE) Version 4.0, US Department of Health and Human Services, National Institutes of Health, National Cancer Institute, May 2009.
Disease assessment was performed at screening and every 6 weeks after the start of dosing. Response was recorded as complete response (CR), partial response (PR), stable disease (SD), or progressive disease (PD) according to the RECIST Version 1.1.
To determine if loss of merlin in the current Phase I mesothelioma population was predictive of response to Compound A, merlin levels were assessed in archival tissue (FFPE) collected at screening by immunohistochemistry (IHC), and the result correlated to clinical endpoint of median progression free survival (PFS).
A custom IHC assay was developed by Mosaic laboratories, Inc, employing a rabbit polyclonal antibody (Santa Cruz Biotechnology, Inc, catalog # SC332) using a dilution of 1:1600. The antibody signal was evaluated by Envision+rabbit HRP (DAKO) detection kit, and the staining intensity (Grade 0-3+) was used to categorize merlin status (merlin positive=wildtype or merlin negative=loss of merlin) of the clinical samples tested. […]

[9] = second anchorage-independent assay, NCI-H2052, merlin negative
[10] = Homo sapiens, read-out: Growth Inhibition gIC50
[11] = mesothelioma patients, 26 with radiologic assessments, RECIST 1.1

CONC(=O)c1ccccc1Nc1cc(Nc2cc(C)nn2C(C)C)ncc1Cl [Compound A, 2-[(5-chloro-2-{[3-methyl-1-(1-methylethyl)-1H-pyrazol-5-yl]amino}-4-pyridinyl)amino]-N-(methyloxy)benzamide]
IC50 [1]: < 250 nM
IC50 ([2]; 144 h, initial anchorage-independent assay, MSTO-211H, NF2 wild-type, merlin positive, 6 days, read-out: Growth Inhibition gIC50): 3590 nM
IC50 ([2]; second anchorage-independent assay, MSTO-211H, merlin positive, read-out: Growth Inhibition gIC50): 10900 nM
IC50 ([2]; second anchorage-independent assay, merlin positive cell line (MSTO-211H), read-out: Concentration required for 50% growth inhibition): ~10000 nM
Net Pop. change Ymin-T0 ([2]; initial anchorage-independent assay, MSTO-211H, NF2 wild-type, 6 days, highest concentration ~30 μM): 343%
Net Population Change Ymin-T0 ([2]; second anchorage-independent assay, MSTO-211H, merlin positive): 367%
IC50 ([3]; 144 h, initial anchorage-independent assay, NCI-H2052, NF2 mutant, merlin negative, 6 days): 186 nM
IC50 [3, 9]: 236 nM
Net Pop. change Ymin-T0 ([3]; initial anchorage-independent assay, NCI-H2052, NF2 mutant, 6 days): −3%
Net Population Change Ymin-T0 [3, 9]: 7%
IC50 [4, 10]: 63 nM
Net Population Change Ymin-T0 [4]: −55%
IC50 [5, 10]: 54 nM
Net Population Change Ymin-T0 [5]: −54%
IC50 [6, 10]: 196 nM
Net Population Change Ymin-T0 [6]: −18%
IC50 [7, 10]: 59 nM
Net Population Change Ymin-T0 [7]: −22%
Overall median progression free survival (PFS) ([8]; all mesothelioma patients, 95% CI 9.7, 24.1, Kaplan-Meier): 17.7 weeks
Patients with PD as best response to treatment [8, 11]: 9 patients
Patients with SD as best response to treatment [8, 11]: fourteen
Patients with non-CR/non-PD as best response to treatment [8, 11]: three
PR or CR; minor responses ([8]; mesothelioma patients, RECIST 1.1): no patients experienced a PR or CR, minor responses in some patients with mesothelioma were seen
Merlin negative patients remaining on study for more than four months ([8]; mesothelioma, merlin negative): Seven of 14
Median PFS in merlin negative subjects ([8]; mesothelioma, merlin negative, n=14, 95% CI 6.0, 29.3): 24.1 weeks
Merlin positive patients remaining on study for more than four months ([8]; mesothelioma, merlin positive): three of nine
Median PFS in merlin positive subjects ([8]; mesothelioma, merlin positive, n=9, 95% CI 7.3, undefined): 11.4 weeks
